In article PMC9936538, “Structure–Activity Relationship of N-Ethyl-Hexedrone Analogues: Role of the α-Carbon Side-Chain Length in the Mechanism of Action, Cytotoxicity, and Behavioral Effects in Mice” (ACS Chemical Neuroscience, 2023):

Assays:
hSERT [1] = target: T1, hSERT (Homo sapiens, UniProt P31645); test: Monoamine uptake inhibition, [3H]5-HT uptake at hSERT in transfected HEK293 cells; format: cell-based; conditions: transfected HEK293 cells; mean ± SEM of four independent experiments; read-out: [3H]5-HT uptake at hSERT, IC50
T1 construct: expressed in transfected cells; host or cells: HEK293
Experimental: (§1) Human embryonic kidney cells (HEK293) stably transfected with the human DAT and SERT were used for both the uptake inhibition and transporter binding assays.[6] Cells were cultured in DMEM supplemented with heat-inactivated 10% fetal bovine serum (FBS), […], and 100 U/mL penicillin at 37 °C in a 5% CO2 humidified atmosphere. Geneticin (G418; 50 μg/mL) was added to maintain the selection process. Upon approximately 80% confluence, cells were washed with 5 mL of phosphate-buffered saline (PBS) and 1 mL of trypsin/EDTA was added. After 3 min, 9 mL of DMEM was added to stop cell trypsinization. If necessary, centrifugation was performed to pellet the cells. Cells were then resuspended, counted, and seeded onto poly-D-lysine coated (24 h/prior to the experiment) 96-well plates at a density of 0.36 million cells per well for the uptake inhibition assays.
(§2) Assays were performed as previously described.[8] On the test day, the medium was removed from the cell culture 96-well plates and immediately replaced with 200 μL of Krebs-HEPES-buffer (KHB; 10 mM HEPES, 120 mM NaCl, 3 mM KCl, 2 mM CaCl2·2H2O, 2 mM MgCl2·6H2O supplemented with 20 mM D-glucose; pH 7.3). To ensure equilibrated conditions, cells were incubated with different concentrations of the drugs in KHB at a final volume of 50 μL/well for 5 min (preincubation). The preincubation solution was removed, and cells were incubated with the tritiated compounds, 0.02 μM [^3H]MPP^+ for hDAT and 0.1 μM [^3H]5-HT for hSERT, together with various concentrations of the test drugs in KHB. The uptake incubation times were 3 min for hDAT and 1 min for hSERT. The reaction was stopped by rapid removal of the incubation solution and washout with ice-cold KHB. Cells were lysed with 1% sodium dodecyl sulfate, and lysates were subsequently transferred to vials containing scintillation fluid. Radioactivity was quantified with a beta-scintillation counter (PerkinElmer, Waltham, MA, USA). The uptake in the absence of the test drugs was normalized to 100%, and the uptake in the presence of various concentrations of cathinones was expressed as a percentage thereof. […] Four independent experiments carried out on triplicates were performed.
(§3) For in vitro assays, data were normalized with 100% defined as the mean of the technical replicates in the control group and expressed as mean ± SEM. Nonlinear regression was used to fit the different competition curves. Data were plotted and best fitted to a sigmoidal dose–response curve from which an IC50 or LC50 value was obtained. Transporter ratios were calculated as (1/DAT IC50: 1/SERT IC50). […] The Cheng–Prusoff equation was used to calculate Ki (affinity): Ki = EC50/(1 + [radioligand concentration/Kd]).[65] The sample size for behavioral experiments was determined using GPower software. One-way or two-way ANOVA, and subsequent Tukey’s posthoc test, conducted only if F was significant, was used to determine the effects of cathinones on cytotoxicity, HLA, OF, and CPP experiments. The α error probability was set at 0.05 (p < 0.05). The exact size group for the behavioral experiments is shown in the corresponding figure legends. All statistic calculations were carried out using GraphPad Prism (GraphPad software, San Diego, CA, USA).

hDAT [2] = target: T2, hDAT (Homo sapiens, UniProt Q01959); test: Transporter binding, [3H]WIN 35,428 binding at hDAT (HEK293 membranes); conditions: membranes of transfected HEK293 cells; mean ± SEM of four independent experiments; read-out: [3H]WIN 35,428 binding at hDAT, Ki
T2 construct: expressed in transfected cells; host or cells: HEK293
Experimental: (§4) For membrane preparation, cells were harvested from 80 to 90% confluent dishes. HEK293 cells were washed with ice-cold phosphate-buffered saline (PBS), mechanically detached from the dish using a plastic scraper, and pelleted by centrifugation (400g for 10 min at 4 °C). The pellet was resuspended in HME buffer (20 mM HEPES NaOH, 1 mM EDTA, 2 mM MgCl2; pH 7.4), subjected to two freeze–thaw cycles in liquid nitrogen and homogenized through sonication at 4 °C. Membranes were then collected by centrifugation (40,000g for 30 min at 4 °C) and resuspended in an appropriate volume of HME buffer. The different membrane preparations aliquots were kept at −80 °C. Protein concentration was determined using the Bio-Rad Protein Reagent (Bio-Rad Laboratories, Hercules, CA).
(§5) Binding assays were performed as described.[6] […] This nonspecific binding also allows subtracting from the total binding values of the binding to other components such as membrane lipids or microfiber filters. Incubation was performed for 1 h at 22 °C. Binding reactions are stopped by rapid filtration of the membranes through GF/C glass microfiber filters presoaked with 0.5% polyethyleneimine and rapid washing with ice-cold wash buffer (120 mM NaCl, 2 mM MgCl2, 10 mM Tris, and 100 μM ZnCl2 for hDAT, and […], 2 mM MgCl2, and 10 mM Tris, for hSERT). Thereafter, the filters are placed into vials, a scintillation cocktail is added and trapped radioactivity is quantified by liquid scintillation counting. Specific binding of each drug to the transporter was defined as the difference between total binding (binding buffer in absence of the drug) and nonspecific binding. For each cathinone, four independent experiments carried out on duplicates were performed.
as §3

hDAT [3] = target: T2, hDAT; test: Monoamine uptake inhibition, [3H]MPP+ uptake at hDAT in transfected HEK293 cells; format: cell-based
Experimental: as §1, §2, §3

hSERT [4] = target: T1, hSERT; test: Transporter binding, [3H]imipramine binding at hSERT (HEK293 membranes); conditions: membranes of transfected HEK293 cells; mean ± SEM of four independent experiments; read-out: [3H]imipramine binding at hSERT, Ki
Experimental: as §4, §5, §3

Swiss CD-1 mice = test: Conditioned place preference (CPP); format: in vivo; conditions: 10 mg/kg i.p.
Experimental: Male Swiss CD-1 mice (Janvier, Le Genest, France) weighing 30–35 g (6–8 weeks old), housed in temperature-controlled conditions (22 ± 1 °C) under a 12 h light/dark cycle and with free access to food and drinking water (standard laboratory diet, Panlab SL, Barcelona, Spain), were randomly assigned to an experimental group. Efforts were made to minimize animal use and suffering.
The potential of the studied compounds to induce reward was determined using a place conditioning paradigm, as described.[6] For this experiment, an apparatus with two distinct compartments, with differences in tactile and visual cues, communicated by a central corridor, has been used. In brief, CPP was performed in three phases: preconditioning test, conditioning, and postconditioning test. During the preconditioning phase (day 0), mice were placed in the middle of the corridor and had free access to both compartments for 15 min. The time spent in each compartment was recorded and monitored using a specific tracking software (Smart 3.0 Panlab, Barcelona, Spain). […] In the alternative session, mice received a saline i.p. injection and were placed for 20 min in the other compartment. Mice in the control group received a saline injection in every session. The compartment and session in which mice received the drug were randomized. On the test day (postconditioning phase), the same conditions as in the preconditioning phase were applied. A preference score was calculated as the difference between the time spent in the drug-paired compartment in the postconditioning test minus the time spent in the preconditioning phase.

[5] = Cytotoxicity in NGF-differentiated PC12 cells, WST-8 cell viability assay; format: cell-based; conditions: rat, WST-8, 24 h exposure, mean ± SEM of 3–4 experiments, read-out: LC50 (approximated), cell viability
Experimental: Pheochromocytoma cells (PC12) cells were cultured in collagen-coated dishes in DMEM supplemented with heat-inactivated 5% FBS, 10% horse serum, 10 mM HEPES, 2 mM glutamine, 25 UI/mL penicillin, and 25 μg/mL streptomycin (maintenance medium) and grown at 37 °C in a humidified 5% CO2 atmosphere. Cell differentiation was performed as described[54] with minor modifications. In brief, cells were seeded (250.000 cells/well) onto 96-well plates in the maintenance medium, and after 24 h, the medium was changed to a differentiation medium containing 50 ng/mL NGF. After 24 h, neurite outgrowth was already apparent.
Treatments with different concentrations of the drug in DMEM were performed 48 h after cell differentiation. 10 μL of the tested drug was added per well, in triplicate, and cells were incubated for 24 h at 37 °C in a humidified 5% CO2 atmosphere. Thereafter, the medium was removed and immediately replaced with a maintenance medium. 10 μL of the CCK-8 Cell Counting Kit, based on 2-(2-methoxy-4-nitrophenyl)-3-(4-nitrophenyl)-5-(2,4-disulfophenyl)-2H-tetrazolium, monosodium salt (WST-8), was added per well and was incubated for 2 h at 37 °C in a humidified 5% CO2 atmosphere. This method has been defined as a good alternative to the 3-(4,5-dimethylthiazol-2-yl)-2,5-diphenyltetrazoliumbromide (MTT) assay.[63] Optical density was measured at 450 nm, using a microplate reader.
For in vitro assays, data were normalized with 100% defined as the mean of the technical replicates in the control group and expressed as mean ± SEM. Nonlinear regression was used to fit the different competition curves. Data were plotted and best fitted to a sigmoidal dose–response curve from which an IC50 or LC50 value was obtained. Transporter ratios were calculated as (1/DAT IC50: 1/SERT IC50). Although IC50 values at inhibiting 5-HT uptake for some compounds tested are expressed as >100 μM for clarity purposes, DAT/SERT ratios were calculated with the original raw data. The Cheng–Prusoff equation was used to calculate Ki (affinity): Ki = EC50/(1 + [radioligand concentration/Kd]).[65] The sample size for behavioral experiments was determined using GPower software. One-way or two-way ANOVA, and subsequent Tukey’s posthoc test, conducted only if F was significant, was used to determine the effects of cathinones on cytotoxicity, HLA, OF, and CPP experiments. The α error probability was set at 0.05 (p < 0.05). The exact size group for the behavioral experiments is shown in the corresponding figure legends. All statistic calculations were carried out using GraphPad Prism (GraphPad software, San Diego, CA, USA).

T2 sequence (Q01959 whole entry): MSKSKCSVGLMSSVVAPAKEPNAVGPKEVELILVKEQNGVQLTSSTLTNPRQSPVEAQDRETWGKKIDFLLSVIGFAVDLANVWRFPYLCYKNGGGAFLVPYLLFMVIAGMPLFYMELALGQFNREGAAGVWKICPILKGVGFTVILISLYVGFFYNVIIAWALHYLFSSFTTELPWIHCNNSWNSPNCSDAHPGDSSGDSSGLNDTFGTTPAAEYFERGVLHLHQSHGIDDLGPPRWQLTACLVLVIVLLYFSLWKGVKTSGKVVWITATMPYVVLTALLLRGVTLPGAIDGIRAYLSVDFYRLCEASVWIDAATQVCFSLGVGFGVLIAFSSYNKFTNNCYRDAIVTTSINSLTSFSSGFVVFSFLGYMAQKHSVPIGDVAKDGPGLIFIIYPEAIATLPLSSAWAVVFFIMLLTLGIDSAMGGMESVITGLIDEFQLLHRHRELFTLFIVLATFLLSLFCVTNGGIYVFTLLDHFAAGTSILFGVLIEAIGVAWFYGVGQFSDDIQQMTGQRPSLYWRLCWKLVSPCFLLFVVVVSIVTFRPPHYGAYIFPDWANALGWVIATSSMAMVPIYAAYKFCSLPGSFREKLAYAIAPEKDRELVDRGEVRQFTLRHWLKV
T1 sequence (P31645 whole entry): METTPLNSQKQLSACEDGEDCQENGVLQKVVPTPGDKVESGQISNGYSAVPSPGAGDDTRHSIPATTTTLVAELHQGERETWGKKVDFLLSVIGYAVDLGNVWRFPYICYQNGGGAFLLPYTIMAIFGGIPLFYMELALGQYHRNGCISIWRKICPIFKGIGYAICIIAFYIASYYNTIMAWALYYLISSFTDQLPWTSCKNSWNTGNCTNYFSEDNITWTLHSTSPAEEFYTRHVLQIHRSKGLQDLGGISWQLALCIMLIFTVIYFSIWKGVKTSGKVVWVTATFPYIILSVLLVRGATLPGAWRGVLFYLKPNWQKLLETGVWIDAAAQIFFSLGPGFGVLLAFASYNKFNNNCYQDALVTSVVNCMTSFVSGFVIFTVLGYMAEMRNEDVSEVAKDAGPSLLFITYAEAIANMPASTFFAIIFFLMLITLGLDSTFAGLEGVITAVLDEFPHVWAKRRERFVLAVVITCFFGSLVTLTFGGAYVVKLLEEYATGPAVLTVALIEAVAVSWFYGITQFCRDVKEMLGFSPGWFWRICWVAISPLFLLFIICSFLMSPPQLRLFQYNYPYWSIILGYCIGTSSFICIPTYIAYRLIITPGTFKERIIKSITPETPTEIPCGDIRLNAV

CCCC(C(=O)c1ccccc1)N1CCCC1 (stereo not drawn) [α-PVP, alpha-pyrrolidinovalerophenone, reference compound]
IC50 (hSERT [1]): > 100 µM
Ki (hDAT [2]): 0.019 µM
hDAT/hSERT inhibition ratio (hDAT [3]; 1/DAT IC50:1/SERT IC50, calculated with the original raw data): 3222
IC50 (hDAT [3]; transfected HEK293 cells, mean ± SEM of four independent experiments, read-out: [3H]MPP+ uptake at hDAT, IC50): 0.124 µM
Ki (hSERT [4]): > 100 µM
CPP rewarding effect vs saline (Swiss CD-1 mice): induced rewarding effects

COC(=O)[C@H]1[C@@H](OC(=O)c2ccccc2)C[C@@H]2CC[C@H]1N2C [Cocaine, reference compound]
CPP rewarding effect vs saline (Swiss CD-1 mice): induced rewarding effects

CN[C@@H](C)Cc1ccccc1 [Meth, methamphetamine, reference compound]
CC50 at 24 h [5]: 8730 µM
